# US20060258670A1, “New phenylpyridylpiperazine compounds” (priority 2005, published 2006)
# What was measured:
# [1] = target: T1, type H3 central histamine receptors (Mus musculus, UniProt P58406); test: Cerebral levels of N^t-methylhistamine in the NMRI mouse (ex vivo, RIA); conditions: one hour after treatment, versus carrier
# T1 construct: from tissue; host or cells: brain of living NMRI mice
# Method: The purpose of this study, which was carried out in accordance with the method of Taylor et al. (Biochem. Pharm., 1992, 44, 1261-1267), is to evaluate the ex vivo activity of the compounds of the present invention as antagonists of type H3 central histamine receptors. […] An increase in the cerebral concentrations of N^t-methylhistamine indicates an increase in the turn-over of histamine by blockage of the type H3 central histamine receptors.
# NMRI mice (18-20 g) are treated intraperitoneally or orally with compounds of the present invention or with their carrier (20 ml/kg). One hour after the pharmacological treatment, the animals are sacrificed, and their brains are removed, frozen in liquid nitrogen, weighed and homogenised in 0.1N HClO4 at 4° C. The homogenised products are centrifuged (15 000 g, 17 min, 4° C.). The supernatants are recovered and divided into aliquots. The aliquots are frozen in, liquid nitrogen and stored at −80° C. until analysis.
# Determination of the cerebral levels of N^t-methylhistamine is carried out by radioimmunological assay (RIA) using an assay kit. The tissue levels of N^t-methylhistamine are expressed in […] of fresh brain. The comparison of the cerebral levels of N^t-methylhistamine between animals treated with the carrier (controls) and animals treated with compounds of the present invention is carried out by single-factor variance analysis followed, if necessary, by a complementary analysis (Dunnett's test).
# Adult male Wistar rats = test: Electroencephalographic recordings on freely moving rats; format: in vivo; conditions: Wistar rat, EEG
# Method: Adult male Wistar rats were chronically implanted with electrodes placed over the frontal and panetal cortex. Cortical electroencephalogram (EEG) was recorded from rats placed inside cages in a sound attenuating-room. Compounds and vehicle were administered in a random order at 10:00 AM on the same days with a minimum of 3 days between each administration, allowing each rat to serve as its own control. Absolute power of slow wave delta band activity (1-4 Hz), that predominates during slow wave sleep and disappears during wakefulness and rapid eyes movement sleep, was averaged over successive periods of 30 min. Over 30 min, low and high values of slow wave delta power are signs of arousal and sleep, respectively.
# T1 sequence (P58406 whole entry): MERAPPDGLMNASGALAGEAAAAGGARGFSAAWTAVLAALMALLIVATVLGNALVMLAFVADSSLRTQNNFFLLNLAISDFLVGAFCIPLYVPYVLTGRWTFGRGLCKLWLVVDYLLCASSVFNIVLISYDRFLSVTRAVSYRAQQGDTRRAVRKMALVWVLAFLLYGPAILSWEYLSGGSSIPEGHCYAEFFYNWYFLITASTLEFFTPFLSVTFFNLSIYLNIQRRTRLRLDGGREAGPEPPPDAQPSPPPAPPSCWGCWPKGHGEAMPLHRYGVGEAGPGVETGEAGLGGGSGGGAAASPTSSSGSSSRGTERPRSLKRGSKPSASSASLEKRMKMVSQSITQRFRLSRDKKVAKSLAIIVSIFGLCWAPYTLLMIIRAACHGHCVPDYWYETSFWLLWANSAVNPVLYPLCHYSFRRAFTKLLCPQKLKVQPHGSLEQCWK
Structure (SMILES),increase of endogenous cerebral concentrations of N^t-methylhistamine ([1]; 10 mg/kg PO) [%],duration of significant reduction of slow wave delta power (cortical activation and arousal) (Adult male Wistar rats; 0.3 mg/kg) [min],"sleep latency: first slow wave sleep episode after administration (Adult male Wistar rats; 3 mg/kg, control group 45±5 minutes) [min]",increase of endogenous cerebral concentrations of N^t-methylhistamine ([1]; 3 mg/kg PO) [%]
CC(C)N1CCN(c2ccc(-c3ccc(S(=O)(=O)N4CCOCC4)cc3)cn2)CC1.Cl.Cl [Example 1],105,150,73 ± 5,
CCN1CCN(c2ccc(-c3ccc(S(=O)(=O)N4CCCCC4)cc3)cn2)CC1.Cl.Cl [Example 5],197,,,
"CC(C)N1CCN(c2ccc(-c3ccc(S(=O)(=O)N4CCN(C)CC4)cc3)cn2)CC1.Cl.Cl.Cl [Example 9, 1-Isopropyl-4-(5-{4-[(4-methylpiperazin-1-yl)sulphonyl]phenyl}pyridin-2-yl)piperazine trihydrochloride]",121,,,
"CC(C)CN1CCN(c2ccc(-c3ccc(S(=O)(=O)N4CCOCC4)cc3)cn2)CC1.Cl.Cl [Example 21, 4-({4-[6-(4-Isobutylpiperazin-1-yl)pyridin-3-yl]phenyl}sulphonyl)-morpholine dihydrochloride]",,,,168
